#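 Compound exposure: 48 hours, 5 concentrations, 96-well plates. Here, GI50 denotes the concentration required for 50% inhibition of growth. At the TGI there is no net growth.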
# Assays:
# Assay in all cases: growth of human tumour cells (NCI), 48 h
# [1] = tested on: UACC-62 melanoma
# [2] = tested on: IGROV1 ovarian
# [3] = tested on: NCI/ADR-RES ovarian
# [4] = tested on: DU-145 prostate
# [5] = tested on: HT29 colon
# [6] = tested on: U251 CNS
# [7] = tested on: TK-10 renal
# [8] = tested on: SK-MEL-2 melanoma
# [9] = tested on: A549 NSCLC
# [10] = tested on: 786-0 renal
# [11] = tested on: HOP-62 NSCLC
# [12] = tested on: MALME-3M melanoma
# [13] = tested on: MDA-MB-435
# [14] = tested on: UACC-257 melanoma
# [15] = tested on: MDA-MB-231 breast
# [16] = tested on: ACHN renal
# [17] = tested on: HS 578T breast
# [18] = tested on: SNB-75 CNS
# [19] = tested on: T-47D breast
# [20] = tested on: HCT-15 colon
# [21] = tested on: OVCAR-8 ovarian
# [22] = tested on: LOX IMVI melanoma
# [23] = tested on: CCRF-CEM leukemia
# [24] = tested on: SR leukemia
# [25] = tested on: HCT-116 colon
# [26] = tested on: COLO 205 colon
# [27] = tested on: RXF 393 renal
# [28] = tested on: OVCAR-3 ovarian
# [29] = tested on: OVCAR-5 ovarian
# [30] = tested on: BT-549 breast
# [31] = tested on: RPMI-8226 leukemia
# [32] = tested on: NCI-H460 lung
# [33] = tested on: HCC-2998 colon
# [34] = tested on: M14 melanoma
# [35] = tested on: SF-295 CNS
# [36] = tested on: KM12 colon
# [37] = tested on: HOP-92 NSCLC
# [38] = tested on: MCF7 breast
# [39] = tested on: NCI-H23 lung
# [40] = tested on: PC-3 prostate
# [41] = tested on: NCI-H522 lung
# [42] = tested on: SW-620 colon
# [43] = tested on: EKVX NSCLC
# [44] = tested on: SK-OV-3 ovarian
# [45] = tested on: UO-31 renal
# [46] = tested on: MOLT-4 leukemia
# [47] = tested on: OVCAR-4 ovarian
# [48] = tested on: SF-539 CNS
# [49] = tested on: HL-60(TB) leukemia
# [50] = tested on: SK-MEL-5 melanoma
# [51] = tested on: K-562 leukemia
# [52] = tested on: A498 renal
# [53] = tested on: CAKI-1 renal
# [54] = tested on: NCI-H226 lung
# [55] = tested on: SNB-19 CNS
# [56] = tested on: SF-268 CNS
# [57] = tested on: SN12C renal
# [58] = tested on: SK-MEL-28 melanoma
smiles,measurement,setting,value
COc1cc2cc(Oc3ccc(NC(=O)Nc4ccc(Cl)c(C(F)(F)F)c4)cc3)c(C)nc2cc1OC,GI50,[1],1240 nM
same,TGI,[1],6010 nM
same,GI50,[2],2340 nM
same,TGI,[2],9830 nM
same,GI50,[3],1060 nM
same,TGI,[3],4910 nM
same,GI50,[4],1240 nM
same,TGI,[4],5110 nM
same,GI50,[5],1200 nM
same,TGI,[5],3980 nM
same,GI50,[6],1030 nM
same,TGI,[6],3780 nM
same,GI50,[7],1320 nM
same,TGI,[7],6190 nM
same,GI50,[8],799 nM
same,TGI,[8],1940 nM
same,TGI,[9],4160 nM
same,GI50,[10],1170 nM
same,TGI,[10],4960 nM
same,GI50,[11],1300 nM
same,TGI,[11],5320 nM
same,GI50,[12],1330 nM
same,TGI,[12],5710 nM
same,GI50,[13],1030 nM
same,TGI,[13],4710 nM
same,GI50,[14],710 nM
same,TGI,[14],2360 nM
same,GI50,[15],681 nM
same,TGI,[15],1840 nM
same,GI50,[16],1070 nM
same,TGI,[16],4000 nM
same,GI50,[17],720 nM
same,TGI,[17],2310 nM
same,GI50,[18],1030 nM
same,TGI,[18],4900 nM
same,GI50,[19],1210 nM
same,TGI,[19],7900 nM
same,GI50,[20],1150 nM
same,TGI,[20],4860 nM
same,GI50,[21],1040 nM
same,TGI,[21],4550 nM
same,GI50,[22],1220 nM
same,TGI,[22],4160 nM
same,GI50,[23],1010 nM
same,TGI,[23],3090 nM
same,GI50,[24],831 nM
same,TGI,[24],2650 nM
same,GI50,[25],994 nM
same,TGI,[25],3840 nM
same,GI50,[26],660 nM
same,TGI,[26],1310 nM
same,GI50,[27],1330 nM
same,TGI,[27],4210 nM
same,GI50,[28],1160 nM
same,TGI,[28],4450 nM
same,GI50,[29],1930 nM
same,TGI,[29],6220 nM
same,GI50,[30],981 nM
same,TGI,[30],4590 nM
same,GI50,[31],635 nM
same,TGI,[31],1650 nM
same,GI50,[32],1070 nM
same,TGI,[32],3570 nM
same,GI50,[33],1770 nM
same,TGI,[33],5480 nM
same,GI50,[34],1250 nM
same,TGI,[34],5250 nM
same,GI50,[35],899 nM
same,TGI,[35],2910 nM
same,GI50,[36],1070 nM
same,TGI,[36],3850 nM
same,GI50,[37],682 nM
same,TGI,[37],2050 nM
same,GI50,[38],1080 nM
same,TGI,[38],3880 nM
same,GI50,[39],991 nM
same,TGI,[39],3790 nM
same,GI50,[40],781 nM
same,TGI,[40],2960 nM
same,GI50,[41],773 nM
same,TGI,[41],2650 nM
same,GI50,[42],1250 nM
same,TGI,[42],4570 nM
same,GI50,[43],1010 nM
same,TGI,[43],3750 nM
same,GI50,[44],1350 nM
same,TGI,[44],5790 nM
same,GI50,[45],924 nM
same,TGI,[45],2380 nM
same,GI50,[46],1140 nM
same,TGI,[46],5490 nM
same,GI50,[47],1370 nM
same,TGI,[47],6100 nM
same,GI50,[48],1960 nM
same,TGI,[48],8390 nM
same,GI50,[49],1130 nM
same,TGI,[49],3120 nM
same,GI50,[50],793 nM
same,TGI,[50],2170 nM
same,GI50,[51],1110 nM
same,TGI,[51],4810 nM
same,GI50,[52],754 nM
same,TGI,[52],3320 nM
same,GI50,[53],782 nM
same,TGI,[53],2540 nM
same,GI50,[54],1270 nM
same,TGI,[54],5010 nM
same,GI50,[55],1410 nM
same,TGI,[55],5310 nM
same,GI50,[56],1550 nM
same,TGI,[56],6340 nM
same,GI50,[57],1310 nM
same,TGI,[57],6120 nM
same,GI50,[58],1410 nM
same,TGI,[58],5450 nM
